Experimental data published in patent US12173088B2, “Anti-microbial peptides” (priority 2018, dated 2024).
Values after ≈ are worked out from the molar mass of the structure shown. Read-outs that look alike come from different tables or passages of the source. Peptide text beside a SMILES is read from it.

What was measured:
K. pneumoniae ATCC 13883 = assay type: cell-based, Klebsiella pneumoniae; conditions: ATCC 13883
Description: (§1) The antibacterial activity of peptides was evaluated using a standard broth microdilution protocol with minor modifications as described (Mishra, et al. (2012) J. Am. Chem. Soc., 134:12426-12429). In brief, logarithmic phase bacterial cultures (i.e., optical density at 600 nm≈0.5) were diluted to OD600 0.001 and partitioned into a 96-well polystyrene microplate at 90 μL per well. After treatment with 10 μL of peptide solutions two fold diluted to various concentrations, microplates were incubated at 37° C. overnight and read on a ChroMate® 4300 Microplate Reader at 630 nm (GMI, Ramsey, MN). […] To study the influence of medium conditions on the antimicrobial activity of peptides against S. aureus USA300, up to 200 mM sodium chloride (NaCl), 2 mM of calcium chloride, 5-10% of human serum, mouse plasma, fluid, or supernatants of tissue homogenates were included into the assays.
(§2) The bacterial strains used include the Gram-positive bacteria methicillin-resistant Staphylococcus aureus USA300, Enterococcus faecium V286-17 (VRE), S. aureus M838-17 (MRSA) and Gram-negative bacteria E. coli E423-17, E416-7 (ampC), P. aeruginosa E411-17, PA01, K. pneumoniae E406-17, ATCC13883, and A. baumannii B26-16. Bacteria were cultivated in tryptic soy broth (TSB) from BD Bioscience.
(§3) The antibacterial activity of peptides was evaluated using a standard broth microdilution protocol with minor modifications (Mishra, et al. (2017) Acta Biomater., 49:316-328). In brief, logarithmic phase bacterial cultures (i.e., optical density at 600 nm≈0.5) were diluted to 0.001 OD and aliquoted 90 μL per well into a 96-well polystyrene microplate. Added 10 μL peptides per well with various concentrations, plates were incubated at 37° C., overnight. Post incubation the plates are read at 630 nm using a ChroMate® Microplate Reader (GMI). […] To study the influence of medium conditions on the antimicrobial activity of peptides against S. aureus USA300 at different pHs (6.8, 7.2, and 8.0), 150 mM sodium chloride (NaCl), 5-10% of human serum, mouse plasma, and peritoneal fluid were included into the assays.

P. aeruginosa PAO1 = assay type: cell-based, Pseudomonas aeruginosa
Description: as §1, §2, §3

[1] = tested on: human red blood cells (hRBCs); assay: Hemolytic assay; assay type: cell-based
Description: Briefly, human red blood cells (hRBCs) were washed three times with phosphate buffer saline (PBS) and diluted to a 2% solution (v/v). After peptide treatment, incubation at 37° C. for one hour, and centrifugation at 5000 rpm for 10 minutes, aliquots of the supernatant were carefully transferred to a fresh 96-well microplate. The amount of hemoglobin released was measured at 545 nm. The percent lysis was calculated by assuming 100% release when human blood cells were treated with 2% Triton™ X-100, and 0% release when incubated with PBS buffer. The peptide concentration that caused 50% lysis of hRBCs is defined as HL50. The cell selectivity index (CSI) was calculated as the ratio between HL50 and MIC of the corresponding peptide against a select pathogenic species.
Hemolytic assays of peptides were performed as described (Mishra, et al. (2017) Acta Biomater., 49:316-328). Briefly, human red blood cells (hRBCs) obtained from UNMC Blood Bank. The blood washed 3× with isotonic saline (0.9% NaCl) and diluted to 2% blood cells (v/v). Peptide horine and verine at various concentrations were added into the 2% blood cells and incubated at 37° C. for 1 hour. Post incubation the plates were spun at 2000 rpm for 10 minutes, aliquots of the supernatant were carefully transferred to a fresh 96-well microplate. The amount of cells lysed is proportional to the hemoglobin released and measured at 545 nm using a ChroMate® microplate reader. The percent lysis was calculated by assuming 100% release when human blood cells were treated with 1% Triton™ X-100, and 0% release when incubated with PBS. The peptide concentration that caused 50% lysis of hRBCs is defined as HL50.

E. coli ATCC 25922 = assay type: cell-based, Escherichia coli
Description: as §1, §3

S. aureus USA300 = assay: microbe, parasite or virus in culture; assay type: cell-based, Staphylococcus aureus
Excerpt: The bacterial strains used include the Gram-positive strains Staphylococcus aureus USA300 LAC, S. epidermidis 1457, and Bacillus subtilis 168, as well as the Gram-negative isolates Escherichia coli K12 and Acinetobacter baumannii B2367-12. Additional, drug resistance strains include Gram-positive Enterococcus faecium V286-17 (VRE) and S. aureus M838-17 (MRSA) and Gram-negative E. coli E423-17, E. coli E416-17 (ampC), and P. aeruginosa E411-17. Bacteria were cultivated in tryptic soy broth (TSB) (BD Bioscience, MD).
as §1, §2, §3

Row | Structure (SMILES) | MIC K. pneumonia ATCC 13883 (K. pneumoniae ATCC 13883) [µM] | MIC P. aeruginosa PAO1 (P. aeruginosa PAO1; PAO1) [µM] | MIC E. coli ATCC 25922 (E. coli ATCC 25922; ATCC 25922) [µM] | MIC S. aureus USA 300 (S. aureus USA300; USA300) [µM] | MIC K. pneumoniae ATCC 13883 (K. pneumoniae ATCC 13883) [µM] | HL50 [1] [µM] | further results
1 | CC(C)C[C@H](NC(=O)[C@H](CC(C)C)NC(=O)[C@H](CCCCN)NC(=O)CNC(=O)[C@H](CC(C)C)NC(=O)[C@H](CC(C)C)NC(=O)[C@H](CO)NC(=O)[C@H](CC(C)C)NC(=O)[C@H](CO)NC(=O)[C@H](CC(C)C)NC(=O)[C@H](CC(C)C)NC(=O)CN)C(N)=O [DFT523, GLLSL-SLLGKLL] (H-GLLSLSLLGKLL-NH2; N-terminus and C-terminus assumed) |  |  |  |  |  |  | MIC against E. coli (E. coli ATCC 25922): 12.5 to 25 µM; MIC E. coli ATCC 25922 (E. coli ATCC 25922; Table 3, quantified by UV): 25 µM (≈ 30.6 µg/mL); MIC P. aeruginosa PAO1 (P. aeruginosa PAO1; Table 3, quantified by UV): >25 µM; HL50 ([1]; Table 3, hRBCs 2% v/v): >50 µM; MIC against S. aureus (S. aureus USA300; Example 1): 12.5 to 25 µM; MIC S. aureus USA 300 (S. aureus USA300; Table 3, quantified by UV): 12.5 µM (≈ 15.3 µg/mL)
2 | CC(C)C[C@H](NC(=O)[C@H](CC(C)C)NC(=O)[C@H](CCCCN)NC(=O)CNC(=O)[C@H](C)NC(=O)[C@H](C)NC(=O)[C@H](CCCCN)NC(=O)[C@H](CC(C)C)NC(=O)[C@H](C)NC(=O)[C@H](CO)NC(=O)[C@H](CC(C)C)NC(=O)[C@H](CC(C)C)NC(=O)CN)C(N)=O [DFT521, GLLSALKAAGKLL] (H-GLLSALKAAGKLL-NH2; N-terminus assumed) |  | >25 | 12.5 (≈ 15.7 µg/mL) | 12.5 (≈ 15.7 µg/mL) |  | >50 | MIC against S. aureus (S. aureus USA300; USA300): 12.5 to 25 µM
3 | CC[C@H](C)[C@H](NC(=O)[C@H](CCCCN)NC(=O)[C@H](CCCNC(=N)N)NC(=O)[C@@H](N)CC(C)C)C(=O)N[C@@H](Cc1c[nH]c2ccccc12)C(=O)N[C@@H](Cc1c[nH]c2ccccc12)C(=O)N[C@@H](Cc1c[nH]c2ccccc12)C(=O)N[C@@H](Cc1c[nH]c2ccccc12)C(=O)O [WW294, LRKIWWWW] (H-LRKIWWWW-OH; N-terminus and C-terminus assumed) |  |  | 12.5 (≈ 15.9 µg/mL) | 3.1 to 6.2 | 6.2 to 12.5 |  | 
4 | CC[C@H](C)[C@H](NC(=O)[C@H](CCCCN)NC(=O)[C@H](CCCNC(=N)N)NC(=O)[C@H](CC(C)C)NC(=O)[C@H](Cc1c[nH]c2ccccc12)NC(=O)[C@H](Cc1c[nH]c2ccccc12)NC(=O)[C@H](Cc1c[nH]c2ccccc12)NC(=O)[C@@H](N)Cc1c[nH]c2ccccc12)C(=O)O [WW298, WWWWLRKI] (H-WWWWLRKI-OH; N-terminus and C-terminus assumed) |  |  | 12.5 (≈ 15.9 µg/mL) | 1.5 to 3.1 | 6.2 to 12.5 |  | 
5 | CC(C)C[C@H](NC(=O)[C@H](CC(C)C)NC(=O)[C@H](CCCCN)NC(=O)CNC(=O)[C@H](C)NC(=O)[C@H](C)NC(=O)[C@H](CCCCN)NC(=O)[C@H](C)NC(=O)[C@H](C)NC(=O)[C@H](CO)NC(=O)[C@H](CC(C)C)NC(=O)[C@H](CC(C)C)NC(=O)CN)C(N)=O [DFT522, GLLSAAKAAGKLL] (H-GLLSAAKAAGKLL-NH2; N-terminus assumed) |  | >25 | >25 | >25 |  | 50 | Antimicrobial activity (S. aureus USA300; at 25 μM): inactive
6 | CC[C@H](C)[C@H](NC(=O)[C@@H](N)CCCCN)C(=O)N[C@@H](Cc1c[nH]c2ccccc12)C(=O)N[C@@H](Cc1c[nH]c2ccccc12)C(=O)N[C@@H](Cc1c[nH]c2ccccc12)C(=O)N[C@@H](Cc1c[nH]c2ccccc12)C(=O)N[C@@H](CC(C)C)C(=O)N[C@@H](CCCNC(=N)N)C(=O)O [WW296, KIWWWWLR] (H-KIWWWWLR-OH; N-terminus and C-terminus assumed) |  |  | 6.2 to 12.5 | 3.1 (≈ 3.95 µg/mL) | 12.5 (≈ 15.9 µg/mL) |  | 
7 | CC[C@H](C)[C@H](NC(=O)[C@H](CCCCN)NC(=O)[C@H](CCCNC(=N)N)NC(=O)[C@H](CC(C)C)NC(=O)[C@H](Cc1c[nH]c2ccccc12)NC(=O)[C@@H](N)Cc1c[nH]c2ccccc12)C(=O)N[C@@H](Cc1c[nH]c2ccccc12)C(=O)N[C@@H](Cc1c[nH]c2ccccc12)C(=O)O [WW292, WWLRKIWW] (H-WWLRKIWW-OH; N-terminus and C-terminus assumed) |  |  | 25 (≈ 31.8 µg/mL) | 6.2 (≈ 7.9 µg/mL) | >50 |  | 
8 | CC[C@H](C)[C@H](NC(=O)[C@H](CCCCN)NC(=O)[C@H](CCCNC(=N)N)NC(=O)[C@H](CC(C)C)NC(=O)[C@@H](N)Cc1c[nH]c2ccccc12)C(=O)N[C@@H](Cc1c[nH]c2ccccc12)C(=O)N[C@@H](Cc1c[nH]c2ccccc12)C(=O)N[C@@H](Cc1c[nH]c2ccccc12)C(=O)O [WW293, WLRKIWWW] (H-WLRKIWWW-OH; N-terminus and C-terminus assumed) |  |  | 12.5 to 25 | 3.1 to 6.2 | 25 (≈ 31.8 µg/mL) |  | 

Second part, led by results:

Row | MIC K. pneumonia ATCC 13883 (K. pneumoniae ATCC 13883) [µM] | MIC P. aeruginosa PAO1 (P. aeruginosa PAO1; PAO1) [µM] | MIC E. coli ATCC 25922 (E. coli ATCC 25922; ATCC 25922) [µM] | MIC S. aureus USA 300 (S. aureus USA300; USA300) [µM] | MIC K. pneumoniae ATCC 13883 (K. pneumoniae ATCC 13883) [µM] | Structure (SMILES) | HL50 [1] [µM] | further results
9 | 25 (≈ 31.8 µg/mL) | 6.2 (≈ 7.88 µg/mL) |  |  |  | CC[C@H](C)[C@H](NC(=O)[C@H](CCCNC(=N)N)NC(=O)[C@H](CCCNC(=N)N)NC(=O)[C@H](CC(C)C)NC(=O)[C@H](Cc1c[nH]c2ccccc12)NC(=O)[C@H](CCCNC(=N)N)NC(=O)[C@@H](N)Cc1c[nH]c2ccccc12)C(=O)N[C@@H](Cc1c[nH]c2ccccc12)C(N)=O [WW301, WRWLRRIW] (H-WRWLRRIW-NH2; N-terminus and C-terminus assumed) | 100 | 
10 | >25 | 12.5 (≈ 15.9 µg/mL) |  |  |  | CC[C@H](C)[C@H](NC(=O)[C@H](CCCNC(=N)N)NC(=O)[C@H](CCCNC(=N)N)NC(=O)[C@H](CC(C)C)NC(=O)[C@H](CCCNC(=N)N)NC(=O)[C@H](Cc1c[nH]c2ccccc12)NC(=O)[C@@H](N)Cc1c[nH]c2ccccc12)C(=O)N[C@@H](Cc1c[nH]c2ccccc12)C(N)=O [WW302, WWRLRRIW] (H-WWRLRRIW-NH2; N-terminus and C-terminus assumed) | >200 | 
11 | >50 | 12.5 (≈ 15.9 µg/mL) |  |  |  | CC[C@H](C)[C@H](NC(=O)[C@H](CCCNC(=N)N)NC(=O)[C@H](CCCNC(=N)N)NC(=O)[C@H](CC(C)C)NC(=O)[C@H](Cc1c[nH]c2ccccc12)NC(=O)[C@H](Cc1c[nH]c2ccccc12)NC(=O)[C@@H](N)CCCNC(=N)N)C(=O)N[C@@H](Cc1c[nH]c2ccccc12)C(N)=O [WW300, RWWLRRIW] (H-RWWLRRIW-NH2; N-terminus and C-terminus assumed) | >200 | 
12 | 25 (≈ 32.5 µg/mL) | >50 |  |  |  | CC[C@H](C)[C@H](NC(=O)[C@H](CCCNC(=N)N)NC(=O)[C@H](CCCNC(=N)N)NC(=O)[C@H](CC(C)C)NC(=O)[C@H](Cc1c[nH]c2ccccc12)NC(=O)[C@H](Cc1c[nH]c2ccccc12)NC(=O)[C@@H](N)Cc1c[nH]c2ccccc12)C(=O)N[C@@H](Cc1c[nH]c2ccccc12)C(N)=O [WW299, WWWLRRIW] (H-WWWLRRIW-NH2; N-terminus and C-terminus assumed) | 35 | 
